Experimental data as given in US8716303B2, “N-(hetero)aryl-pyrrolidine derivatives of pyrazol-4-yl-pyrrolo[2,3-d]pyrimidines and pyrrol-3-yl-pyrrolo[2,3-d]pyrimidines as janus kinase inhibitors” (Incyte Corporation, priority 2009, dated 2014).
Where a name gives a salt, the structure may show the parent alone.

Experiments:
[1] = molecular target: T1, human JAK1 (a.a. 837-1142) (Homo sapiens, UniProt P23458); test: In vitro JAK kinase assay (HTRF, phosphorylation of a biotinylated peptide), JAK1; format: biochemical
T1 construct: human JAK1 (a.a. 837-1142); His tag (N); made in house; host or cells: insect cells (baculovirus)
T1 sequence (P23458 849-1154): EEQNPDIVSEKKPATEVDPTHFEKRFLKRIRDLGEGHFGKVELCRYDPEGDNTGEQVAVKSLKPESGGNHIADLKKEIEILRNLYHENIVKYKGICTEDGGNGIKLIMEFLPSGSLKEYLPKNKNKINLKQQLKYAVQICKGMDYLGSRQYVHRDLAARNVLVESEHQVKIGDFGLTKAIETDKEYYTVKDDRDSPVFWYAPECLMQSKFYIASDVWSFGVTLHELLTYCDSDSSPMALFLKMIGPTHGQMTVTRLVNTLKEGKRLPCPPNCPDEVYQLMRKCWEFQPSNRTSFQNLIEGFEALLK
How it was run: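 His-tagged catalytic domains (JAK1 a.a. 837-1142, JAK2 a.a. 828-1132) from insect cells phosphorylate 500 nM biotinylated peptide in 50 mM Tris pH 7.8, 100 mM NaCl, 5 mM DTT; ATP at Km (90 μM JAK1, 30 μM JAK2) or 1 mM, as indicated. 1 h at RT; EDTA stop, HTRF readout; IC50s.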

[2] = molecular target: T2, Jak2 (a.a. 828-1132) (Homo sapiens, UniProt O60674); test: In vitro JAK kinase assay (HTRF, phosphorylation of a biotinylated peptide), JAK2, reported as JAK2/JAK1 ratio; format: biochemical
T2 construct: Jak2 (a.a. 828-1132); His tag (N); made in house; host or cells: insect cells (baculovirus)
T2 sequence (O60674 828-1132): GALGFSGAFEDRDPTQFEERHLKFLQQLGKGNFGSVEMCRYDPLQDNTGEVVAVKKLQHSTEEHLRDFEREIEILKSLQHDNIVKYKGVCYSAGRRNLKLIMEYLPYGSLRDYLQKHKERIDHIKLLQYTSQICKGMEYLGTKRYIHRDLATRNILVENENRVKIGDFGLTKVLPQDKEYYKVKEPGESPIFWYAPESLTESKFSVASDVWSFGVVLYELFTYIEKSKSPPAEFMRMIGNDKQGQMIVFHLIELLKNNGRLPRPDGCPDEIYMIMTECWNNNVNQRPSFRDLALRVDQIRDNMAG

[3] = Assay Conditions Km (ATP 90 μM for Jak1)
[4] = Assay Conditions Km (ATP 90 μM for Jak1, 30 μM for Jak2)

N#CCC(C1CCN(c2ncc3c(c2C#N)S(=O)(=O)CC3)C1)n1ccc(-c2ncnc3[nH]ccc23)c1 (racemic) [Example 171-rac, 6-(3-{2-cyano-1-[3-(7H-pyrrolo[2,3-d]pyrimidin-4-yl)-1H-pyrrol-1-yl]ethyl}pyrrolidin-1-yl)-2,3-dihydrothieno[3,2-c]pyridine-7-carbonitrile 1,1-dioxide]
IC50 ([1]; Assay Conditions 1 mM ATP): < 50 nM | JAK2/JAK1 IC50 ratio ([2]; Assay Conditions 1 mM ATP): 21.9

N#CCC(C1CCN(c2nc3cccnc3o2)C1)n1cc(-c2ncnc3[nH]ccc23)cn1 (single isomer, unassigned) [Example 13b, 3-(1-[1,3]oxazolo[5,4-b]pyridin-2-ylpyrrolidin-3-yl)-3-[4-(7H-pyrrolo[2,3-d]pyrimidin-4-yl)-1H-pyrazol-1-yl]propanenitrile]
IC50 [1, 3]: < 50 nM | JAK2/JAK1 IC50 ratio [2, 4]: 2.1

FCC([C@@H]1CCN(c2nc3cccnc3o2)C1)n1cc(-c2ncnc3[nH]ccc23)cn1 (stereo partly drawn) [71 (3R- enantiomer), 2-((3R)-3-{2-fluoro-1-[4-(7H-pyrrolo[2,3-d]pyrimidin-4-yl)-1H-pyrazol-1-yl]ethyl}pyrrolidin-1-yl) [1,3]oxazolo[5,4-b]pyridine phosphoric acid salt]
IC50 ([1]; Assay Conditions 1 mM ATP): < 50 nM | JAK2/JAK1 IC50 ratio ([2]; Assay Conditions 1 mM ATP): 5.9

N#CCC(C1CCN(c2nc3cccnc3o2)C1)n1cc(-c2ncnc3[nH]ccc23)cn1 (single isomer, unassigned) [Example 13a, 3-(1-[1,3]oxazolo[5,4-b]pyridin-2-ylpyrrolidin-3-yl)-3-[4-(7H-pyrrolo[2,3-d]pyrimidin-4-yl)-1H-pyrazol-1-yl]propanenitrile]
IC50 [1, 3]: < 50 nM | JAK2/JAK1 IC50 ratio [2, 4]: 12

N#CCC(C1CCN(c2scnc2C#N)C1)n1ccc(-c2ncnc3[nH]ccc23)c1 (racemic) [Example 149-rac, 5-(3-{2-cyano-1-[3-(7H-pyrrolo[2,3-d]pyrimidin-4-yl)-1H-pyrrol-1-yl]ethyl}pyrrolidin-1-yl)-1,3-thiazole-4-carbonitrile]
IC50 ([1]; Assay Conditions 1 mM ATP): < 50 nM | JAK2/JAK1 IC50 ratio ([2]; Assay Conditions 1 mM ATP): 14.5

N#CC[C@@H]([C@H]1CCN(c2ccc(C#N)c(Cl)n2)C1)n1cc(-c2ncnc3[nH]ccc23)cn1 [Example 69, 2-chloro-6-((3S)-3-{(1S)-2-cyano-1-[4-(7H-pyrrolo[2,3-d]pyrimidin-4-yl)-1H-pyrazol-1-yl]ethyl}pyrrolidin-1-yl)nicotinonitrile trifluoroacetate salt]
IC50 ([1]; Assay Conditions 1 mM ATP): < 50 nM | JAK2/JAK1 IC50 ratio ([2]; Assay Conditions 1 mM ATP): 6.5

N#CCC(C1CCN(c2ccc3c(n2)OCC3)C1)n1cc(-c2ncnc3[nH]ccc23)cn1 (single isomer, unassigned) [Example 155, 3-[1-(2,3-dihydrofuro[2,3-b]pyridin-6-yl)pyrrolidin-3-yl]-3-[4-(7H-pyrrolo[2,3-d]pyrimidin-4-yl)-1H-pyrazol-1-yl]propanenitrile]
IC50 ([1]; Assay Conditions 1 mM ATP): 50 to 100 nM | JAK2/JAK1 IC50 ratio ([2]; Assay Conditions 1 mM ATP): 5.3

C[S+]([O-])c1nccc(N2CCC(C(CC#N)n3cc(-c4ncnc5[nH]ccc45)cn3)C2)n1 (single isomer, unassigned) [Example 24, 3-{1-[2-(methylsulfinyl)pyrimidin-4-yl]pyrrolidin-3-yl}-3-[4-(7H-pyrrolo[2,3-d]pyrimidin-4-yl)-1H-pyrazol-1-yl]propanenitrile]
IC50 ([1]; Assay Conditions 1 mM ATP): < 50 nM | JAK2/JAK1 IC50 ratio ([2]; Assay Conditions 1 mM ATP): 2.5

N#CC[C@@H]([C@H]1CCN(c2ncc(C(F)F)nc2C#N)C1)n1cc(-c2ncnc3[nH]ccc23)cn1 [Example 138, 3-((3S)-3-{(1S)-2-cyano-1-[4-(7H-pyrrolo[2,3-d]pyrimidin-4-yl)-1H-pyrazol-1-yl]ethyl}pyrrolidin-1-yl)-6-(difluoromethyl)pyrazine-2-carbonitrile trifluoroacetate]
IC50 ([1]; Assay Conditions 1 mM ATP): < 50 nM | JAK2/JAK1 IC50 ratio ([2]; Assay Conditions 1 mM ATP): 17.5

N#CCC(C1CCN(c2cccc(Cl)[n+]2[O-])C1)n1cc(-c2ncnc3[nH]ccc23)cn1 (single isomer, unassigned) [Example 45, 3-[1-(6-chloro-1-oxidopyridin-2-yl)pyrrolidin-3-yl]-3-[4-(7H-pyrrolo[2,3-d]pyrimidin-4-yl)-1H-pyrazol-1-yl]propanenitrile]
IC50 [1, 3]: < 50 nM | JAK2/JAK1 IC50 ratio [2, 4]: 7.4

N#CCC(C1CCN(c2nc3cccc(F)c3o2)C1)n1ccc(-c2ncnc3[nH]ccc23)c1 (single isomer, unassigned) [Example 158-2, 3-[1-(7-fluoro-1,3-benzoxazol-2-yl)pyrrolidin-3-yl]-3-[3-(7H-pyrrolo[2,3-d]pyrimidin-4-yl)-1H-pyrrol-1-yl]propanenitrile]
IC50 ([1]; Assay Conditions 1 mM ATP): < 50 nM | JAK2/JAK1 IC50 ratio ([2]; Assay Conditions 1 mM ATP): 19.0

CS(=O)(=O)c1nc(F)c(N2CC[C@H]([C@H](CC#N)n3cc(-c4ncnc5[nH]ccc45)cn3)C2)cc1F [Example 134, (3S)-3-{(3S)-1-[2,5-difluoro-6-(methylsulfonyl)pyridin-3-yl]pyrrolidin-3-yl}-3-[4-(7H-pyrrolo[2,3-d]pyrimidin-4-yl)-1H-pyrazol-1-yl]propanenitrile trifluoroacetate]
IC50 ([1]; Assay Conditions 1 mM ATP): < 50 nM | JAK2/JAK1 IC50 ratio ([2]; Assay Conditions 1 mM ATP): 17

N#CCC(C1CCN(c2ncc3ccoc3c2C#N)C1)n1ccc(-c2ncnc3[nH]ccc23)c1 (racemic) [Example 170-rac, 6-(3-{2-cyano-1-[3-(7H-pyrrolo[2,3-d]pyrimidin-4-yl)-1H-pyrrol-1-yl]ethyl}pyrrolidin-1-yl)furo[3,2-c]pyridine-7-carbonitrile]
IC50 ([1]; Assay Conditions 1 mM ATP): < 50 nM | JAK2/JAK1 IC50 ratio ([2]; Assay Conditions 1 mM ATP): 4.5

CS(=O)(=O)c1cc(N2CCC(C(CC#N)n3cc(-c4ncnc5[nH]ccc45)cn3)C2)ccn1 (single isomer, unassigned) [Example 27, 3-{1-[2-(methylsulfonyl)pyridin-4-yl]pyrrolidin-3-yl}-3-[4-(7H-pyrrolo[2,3-d]pyrimidin-4-yl)-1H-pyrazol-1-yl]propanenitrile]
IC50 ([1]; Assay Conditions 1 mM ATP): < 50 nM | JAK2/JAK1 IC50 ratio ([2]; Assay Conditions 1 mM ATP): 14

N#CCC(n1cc(-c2ncnc3[nH]ccc23)cn1)C1(F)CCN(c2nc3cccnc3o2)C1 (single isomer, unassigned) [31, Step 4a, enantiomer 2]
IC50 ([1]; Assay Conditions 1 mM ATP): 50 to 100 nM | JAK2/JAK1 IC50 ratio ([2]; Assay Conditions 1 mM ATP): 5.1

N#CCC(C1CCN(c2nc3cccc(Br)c3o2)C1)n1cc(-c2ncnc3[nH]ccc23)cn1.O=C(O)C(F)(F)F (single isomer, unassigned) [Example 159, 3-[1-(7-bromo-1,3-benzoxazol-2-yl)pyrrolidin-3-yl]-3-[4-(7H-pyrrolo[2,3-d]pyrimidin-4-yl)-1H-pyrazol-1-yl]propanenitrile trifluoracetate]
IC50 ([1]; Assay Conditions 1 mM ATP): < 50 nM | JAK2/JAK1 IC50 ratio ([2]; Assay Conditions 1 mM ATP): 12.9

Cn1ccnc(N2CCC(C(CC#N)n3cc(-c4ncnc5[nH]ccc45)cn3)C2)c1=O (racemic) [Example 37, ±3-[1-(4-methyl-3-oxo-3,4-dihydropyrazin-2-yl)pyrrolidin-3-yl]-3-[4-(7H-pyrrolo[2,3-d]pyrimidin-4-yl)-1H-pyrazol-1-yl]propanenitrile trifluoroacetate]
IC50 ([1]; Assay Conditions 1 mM ATP): < 50 nM | JAK2/JAK1 IC50 ratio ([2]; Assay Conditions 1 mM ATP): >8.7

N#CC[C@@H]([C@H]1CCN(c2cncc(Cl)c2C#N)C1)n1cc(-c2ncnc3[nH]ccc23)cn1 [Example 64, 3-chloro-5-((3S)-3-{(1S)-2-cyano-1-[4-(7H-pyrrolo[2,3-d]pyrimidin-4-yl)-1H-pyrazol-1-yl]ethyl}pyrrolidin-1-yl) isonicotinonitrile trifluoroacetate salt]
IC50 ([1]; Assay Conditions 1 mM ATP): < 50 nM | JAK2/JAK1 IC50 ratio ([2]; Assay Conditions 1 mM ATP): 11

N#CC[C@@H]([C@H]1CCN(c2ncncc2C#N)C1)n1cc(-c2ncnc3[nH]ccc23)cn1 [Example 84, 4-((S)-3-((S)-1-(4-(7H-pyrrolo[2,3-d]pyrimidin-4-yl)-1H-pyrazol-1-yl)-2-cyanoethyl)pyrrolidin-1-yl)pyrimidine-5-carbonitrile trifluoroacetate]
IC50 ([1]; Assay Conditions 1 mM ATP): < 50 nM | JAK2/JAK1 IC50 ratio ([2]; Assay Conditions 1 mM ATP): 11.5

N#CCC(C1CCN(c2ncc3ccoc3c2C#N)C1)n1cc(-c2ncnc3[nH]ccc23)cn1 (single isomer, unassigned) [Example 169, 6-(3-{2-cyano-1-[4-(7H-pyrrolo[2,3-d]pyrimidin-4-yl)-1H-pyrazol-1-yl]ethyl}pyrrolidin-1-yl)furo[3,2-c]pyridine-7-carbonitrile]
IC50 ([1]; Assay Conditions 1 mM ATP): < 50 nM | JAK2/JAK1 IC50 ratio ([2]; Assay Conditions 1 mM ATP): >13.3

N#CCC(C1CCN(c2ccc3cc[nH]c3n2)C1)n1cc(-c2ncnc3[nH]ccc23)cn1 (centres unmarked) [Example 73, 3-(1-(1H-pyrrolo[2,3-b]pyridin-6-yl)pyrrolidin-3-yl)-3-(4-(7H-pyrrolo[2,3-d]pyrimidin-4-yl)-1H-pyrazol-1-yl)propanenitrile trifluoroacetate]
IC50 ([1]; Assay Conditions 1 mM ATP): < 50 nM | JAK2/JAK1 IC50 ratio ([2]; Assay Conditions 1 mM ATP): 1.7

N#CC[C@@H]([C@H]1CCN(c2nc(Br)ccc2F)C1)n1cc(-c2ncnc3[nH]ccc23)cn1.O=C(O)C(F)(F)F.O=C(O)C(F)(F)F [Example 88, (3S)-3-[(3S)-1-(6-bromo-3-fluoropyridin-2-yl)pyrrolidin-3-yl]-3-[4-(7H-pyrrolo[2,3-d]pyrimidin-4-yl)-1H-pyrazol-1-yl]propanenitrile bis(trifluoroacetate)]
IC50 ([1]; Assay Conditions 1 mM ATP): < 50 nM | JAK2/JAK1 IC50 ratio ([2]; Assay Conditions 1 mM ATP): 40.0
